Patent US7501530B2, “Trifluoromethyl-thiophene carboxylic acid aniledes and use thereof as fungicides” (BASF Aktiengesellschaft, priority 2003, dated 2009)

Experiments:
Botrytis cinerea [1] = test: Activity and persistency against gray mold on bell-pepper leaves (Use Example 1); type: in vivo; conditions: 63 ppm spray; bell-pepper seedlings; inoculated 7 days after treatment; assessed visually after 5 days; untreated 90%
Experimental: Activity and Persistency against Gray Mold, Caused by Botrytis cinerea, on Bell-pepper Leaves Bell-pepper seedlings of the cultivar “Neusiedler Ideal Elite” having 4-5 well-developed leaves were sprayed to runoff point with an aqueous suspension having the concentration stated below of active compounds. The suspension or emulsion was prepared from a stock solution containing 10% of active compound in a mixture comprising 85% of cyclohexanone and 5% of emulsifier. The plants were then cultivated for a further 7 days, and the treated plants were then inoculated with a spore suspension of Botrytis cinerea, which comprised 1.7×10^6 spores/ml in a 2% strength aqueous biomalt solution. The test plants were then placed in a climatized chamber at 22-24° C. in high atmospheric humidity. After 5 days, the extent of the fungal infection on the leaves could be determined visually in %, giving not only an indication of the fungicidal action of the substances but also of the persistency.

Sphaerotheca fuliginea = test: Protective activity against mildew of cucumber (Use Example 3); type: in vivo; conditions: 63 ppm spray; cucumber seedlings, cotyledon area; inoculated 20 hours after spray coating dried; assessed after 7 days; untreated 90%
Experimental: Protective Activity Against Mildew of Cucumber Caused by Sphaerotheca fuliginea Leaves of potted cucumber seedlings of the cultivar “Chinese Snake”, in the cotyledon stage, were sprayed to runoff point with an aqueous suspension having the concentration stated below of active compounds. The suspension or emulsion was prepared from a stock solution containing 10% of active compound in a mixture comprising 85% of cyclohexanone and 5% of emulsifier. 20 hours after the spray coating had dried on, the plants were inoculated with an aqueous spore suspension of mildew of cucumber (Sphaerotheca fuliginea). The plants were then cultivated in a greenhouse at 20-24° C. and 60-80% relative atmospheric humidity for 7 days. The extent of mildew development was then determined visually in % infection of the cotyledon area.

Botrytis cinerea [2] = test: Protective activity against gray mold on bell-pepper leaves (Use Example 2); type: in vivo; conditions: 250 ppm spray; bell-pepper seedlings; inoculated the next day; assessed visually after 5 days; untreated 100%
From the text: Protective Activity against Gray Mold, Caused by Botrytis cinerea, on Bell-pepper Leaves Bell-pepper seedlings of the cultivar “Neusiedler Ideal Elite” having 4-5 well-developed leaves were sprayed to runoff point with an aqueous suspension having the concentration stated below of active compounds. The active compounds were separately prepared as a stock solution containing 0.25% by weight of active compound in acetone or dimethyl sulfoxide. This solution was admixed with 1% by weight of Emulgator Uniperol® EL (wetting agent based on ethoxylated alkylphenols which has an emulsifying and dispersing effect) and diluted with water to the desired concentration. The next day, the treated plants were inoculated with a spore suspension of Botrytis cinerea, comprising 1.7×10^6 spores/ml in a 2% strength aqueous biomalt solution. The test plants were then placed in a climatized chamber at 22-24° C. in high atmospheric humidity. After 5 days, the extent of the fungal infection on the leaves could be determined visually in %.

Structure (SMILES) | Foliar infection [%] at 63 ppm (Botrytis cinerea [1]) | Foliar infection [%] at 63 ppm (Sphaerotheca fuliginea) | also measured
CCC(C)c1ccccc1NC(=O)c1sccc1C(F)(F)F (stereo not drawn) [I-1] | 5% |  | 
O=C(Nc1ccccc1C1CCCC1)c1sccc1C(F)(F)F [I-2] | 7% |  | 
O=C(Nc1ccccc1C1CCCCC1)c1sccc1C(F)(F)F [I-3] | 3% | 5% | 
O=C(Nc1ccccc1OC(F)(F)C(F)F)c1sccc1C(F)(F)F [I-5] | 3% | 5% | 
O=C(Nc1ccccc1-c1ccc(Cl)cc1)c1sccc1C(F)(F)F [I-6] | 1% | 0% | 
O=C(Nc1ccccc1-c1ccc(F)cc1)c1sccc1C(F)(F)F [I-7] | 1% | 0% | 
CC(C)Oc1cccc(NC(=O)c2sccc2C(F)(F)F)c1 [I-8] | 10% |  | 
O=C(Nc1cccc(OC2CCCC2)c1)c1sccc1C(F)(F)F [I-11] | 7% |  | 
O=C(Nc1ccccc1-c1ccccc1)c1sccc1C(F)(F)F [I-12] |  | 0% | 
CC(C)c1ccc(-c2ccccc2NC(=O)c2sccc2C(F)(F)F)cc1 [I-13] |  | 0% | 
O=C(Nc1ccccc1OCC(F)(F)F)c1sccc1C(F)(F)F [I-14, N-(2-(2,2,2-trifluoroethoxy)phenyl)-3-trifluoromethylthiophene-2-carboxamide] |  |  | melting point: 125 to 127 °C
O=C(Nc1ccccc1C1CCCC1)c1ccsc1C(F)(F)F [II-2] | 10% |  | 
O=C(Nc1ccccc1C1CCCCC1)c1ccsc1C(F)(F)F [II-3] | 5% | 3% | 
O=C(Nc1ccccc1OC(F)(F)C(F)F)c1ccsc1C(F)(F)F [II-5] | 3% |  | 
O=C(Nc1ccccc1-c1ccc(Cl)cc1)c1ccsc1C(F)(F)F [II-6] |  | 0% | 
O=C(Nc1ccccc1-c1ccc(F)cc1)c1ccsc1C(F)(F)F [II-7] | 1% | 5% | 
CC(C)Oc1cccc(NC(=O)c2ccsc2C(F)(F)F)c1 [II-8, N-(3-isopropoxyphenyl)-2-trifluoromethylthiophene-3-carboxamide] | 5% |  | 
CCCCCCOc1cccc(NC(=O)c2ccsc2C(F)(F)F)c1 [II-10] | 10% |  | 
Cc1ccccc1-c1ccccc1NC(=O)c1cscc1C(F)(F)F [III-4] |  |  | Foliar infection [%] at 250 ppm (Botrytis cinerea [2]): 3%
CCC(C)c1ccccc1NC(=O)c1cscc1C(F)(F)F (stereo not drawn) [III-5] |  |  | Foliar infection [%] at 250 ppm (Botrytis cinerea [2]): 3%
O=C(Nc1ccccc1C1CCCC1)c1cscc1C(F)(F)F [III-7] |  |  | Foliar infection [%] at 250 ppm (Botrytis cinerea [2]): 7%
